Target: T1, Type IV collagenase (MMP-9) (Homo sapiens, UniProt P14780)
T1 construct: made in house; host or cells: endogenous secretion by TPA-stimulated human fibrosarcoma HT 1080 cells; purified from conditioned medium
Assay: Type IV collagenase (MMP-9) inhibition assay, fluorescent substrate kit
Format: biochemical
Conditions: activated MMP-9 from HT 1080 cells; type IV collagenase activity kit, fluorescent intensity
Procedure: (1) Isolation and Purification of MMP-9 (92 kDa, Gelatinase B)
Type IV collagenase (MMP-9) was purified according to the methods descrived in the following literature.
Subsequently, activated MMP-9 was obtained by treating the pro-MMP-9 with trypsin.
(2) Assay Methods of Type IV Collagenase Inhibitors
Collagenase assay was performed using the activated MMP-9 described above and the substrate supplied in the type IV collagenase activity kit (YAGAI, inc.), according to the manufacturer's protocol. The following 4 assays are performed per compound (inhibitor). • (A) substrate ([…]), enzyme (MMP-9), inhibitor • (B) substrate ([…]), inhibitor • (C) substrate ([…]), enzyme (MMP-9) • (D) substrate ([…])
According to the manufacturer's protocol, fluorescent intensity was measured and percent inhibition was determined by the following equation. Inhibition (%)={1−(A−B)/(C−D;)}×100

T1 sequence (P14780 107-707 limits assumed): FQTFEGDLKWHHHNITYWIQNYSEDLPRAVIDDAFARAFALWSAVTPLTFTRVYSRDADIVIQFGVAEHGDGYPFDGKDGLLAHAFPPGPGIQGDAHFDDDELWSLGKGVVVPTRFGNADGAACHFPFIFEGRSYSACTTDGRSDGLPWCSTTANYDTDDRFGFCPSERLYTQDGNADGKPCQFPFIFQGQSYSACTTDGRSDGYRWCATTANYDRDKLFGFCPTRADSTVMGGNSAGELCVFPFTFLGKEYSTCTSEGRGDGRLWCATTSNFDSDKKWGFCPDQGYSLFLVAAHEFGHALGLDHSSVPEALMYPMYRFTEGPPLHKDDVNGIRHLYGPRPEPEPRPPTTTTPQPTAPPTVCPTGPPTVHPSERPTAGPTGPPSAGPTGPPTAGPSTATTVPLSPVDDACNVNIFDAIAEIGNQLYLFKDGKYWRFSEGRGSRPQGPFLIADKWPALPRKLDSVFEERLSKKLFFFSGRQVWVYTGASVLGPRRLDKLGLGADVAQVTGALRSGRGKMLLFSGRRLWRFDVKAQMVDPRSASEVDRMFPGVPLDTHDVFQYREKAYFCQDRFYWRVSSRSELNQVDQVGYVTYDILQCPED

Compound | IC50
O=C(NO)C(Cc1nc2ccccc2[nH]1)NS(=O)(=O)c1ccc(-c2ccccc2)cc1 (racemic) [Example 1b.1-35] | 21.6 nM
O=C(O)[C@@H](Cc1ccccc1)NS(=O)(=O)c1ccc(-c2nnn(-c3ccccc3)n2)cc1 [Example 1a-5-3] | 210 nM
O=C(NO)[C@@H](Cc1ccccc1)NS(=O)(=O)c1ccc(-c2nnn(-c3ccccc3)n2)cc1 [Example 1b-211] | 5.65 nM

Reference: patent publication US6919375B1, “Sulfonated amino acid derivatives and metalloproteinase inhibitors containing the same” (Shionogi & Co., Ltd., priority 1996, dated 2005)
